The numbers were not newly measured in patent US6511683B1, “Enchinacea supplement and method of manufacture” (Factors R & D Technologies Ltd., priority 1999, dated 2003), which cites them from elsewhere.

One data set concerns granulocytes. Particulars: Awang et al.
Another data set deals with immune system. The note with it: Awang et al.

Structures are written as SMILES. Some results are limits rather than exact numbers.

For `O=C(/C=C/c1ccc(O)c(O)c1)O[C@@H](C(=O)O)[C@@H](OC(=O)/C=C/c1ccc(O)c(O)c1)C(=O)O` [cichoric acid, 2,3-o-di-caffeoyl-tartaric acid], the phagocytosis in granulocytes result in the data set with granulocytes is “increase”. In the data set with immune system, the “concentration that may stimulate the immune system” value is ≥ 0.01 ppm.
